This is an account of results in US10077261B2, “Imidazolin-5-one derivative useful as FASN inhibitors for the treatment of cancer” (Janssen Pharmaceutica NV, priority 2012, dated 2018).

The subject of assay [1] is A2780 ovarian cells. In words: A2780 ovarian cell proliferation assay in lipid reduced medium, without palmitate (MTT). The class given is cell-based. Conditions: Homo sapiens, A2780, 96 h; read-out: pIC50 A2780 Ovarian Cell, Without Palmitate (converted).
The test system of assay [2] is A2780 ovarian cells. In words: A2780 ovarian cell proliferation assay in lipid reduced medium, with palmitate (MTT). Conditions: Homo sapiens, A2780, 96 h; read-out: pIC50 A2780 Ovarian Cell, With Palmitate (converted). The class given is cell-based. The gist of the method: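 In this palmitate-supplemented format, compound dilutions (30 μM down to 0.01 μM) are added to cells in lipid-reduced serum with 25 μM palmitate, 0.2% fatty-acid-free BSA and 0.25% ethanol. After four days (96 h) MTT absorbance at 544 nm is recorded and fitted by minimum sum of squares.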

Assay [3] concerns the target T1, hFASN enzyme (full length) (Homo sapiens, UniProt P49327).
T1 construct: 10 μL hFASN enzyme (full length, 300 ng, purified in house); made in house
In words: Fatty Acid Synthase (FASN) inhibition scintillation proximity assay. The class given is biochemical. The settings on record: for inhibition at 10 µM: read-out: Human FASN % inhibition @ 10 μM, 10 μM test compound; for IC50: read-out: Human FASN pIC50 (converted). The gist of the method: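 Proximity read-out: hydrophobic ^3H-palmitate formed from ^3H-acetyl-CoA and malonyl-CoA binds streptavidin imaging beads, imaged at 610±20 nm at least 24 h after stopping. Enzyme was in-house purified full-length hFASN, 300 ng, in pH 7.5 phosphate/DTT buffer; compound series 30 μM down to 0.01 μM, normalized to controls, 4-parameter fit.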

The target in assay [4] is Fatty Acid Synthase Keto-reductase Domain (FASN KR) (Homo sapiens, UniProt P49327). In words: Fatty Acid Synthase keto-reductase domain (FASN KR) inhibition, NADPH oxidation at 340 nm.
Method: After 20 minutes incubation at room temperature the plate was measured again (T2).
The decrease in absorbance was calculated as (Absorbance before incubation T1)−(Absorbance following incubation T2).
A plot of Controlmin versus test compound concentration was fitted to a 4-parameter logistic curve using a non-linear least squares regression method.
The test system of assay [5] is PC-3M-Luc-C6 prostate cells. In words: In vitro PC-3M-Luc-C6 prostate cell proliferation assay in lipid reduced medium. In kind it is cell-based. Conditions: 96 h, read-out: pIC50 PC-3M-Luc-C6 prostate cell (converted).
In assay [6] the test system is LNCaP-Vancouver prostate cells. In words: In vitro LNCaP Vancouver prostate cell proliferation assay in lipid reduced medium. The settings on record: read-out: pIC50 LNCaP_Vancouver prostate cell (converted). The class given is cell-based.

Chain of Fatty Acid Synthase Keto-reductase Domain (FASN KR) (P49327 whole entry, the tested form may be a part): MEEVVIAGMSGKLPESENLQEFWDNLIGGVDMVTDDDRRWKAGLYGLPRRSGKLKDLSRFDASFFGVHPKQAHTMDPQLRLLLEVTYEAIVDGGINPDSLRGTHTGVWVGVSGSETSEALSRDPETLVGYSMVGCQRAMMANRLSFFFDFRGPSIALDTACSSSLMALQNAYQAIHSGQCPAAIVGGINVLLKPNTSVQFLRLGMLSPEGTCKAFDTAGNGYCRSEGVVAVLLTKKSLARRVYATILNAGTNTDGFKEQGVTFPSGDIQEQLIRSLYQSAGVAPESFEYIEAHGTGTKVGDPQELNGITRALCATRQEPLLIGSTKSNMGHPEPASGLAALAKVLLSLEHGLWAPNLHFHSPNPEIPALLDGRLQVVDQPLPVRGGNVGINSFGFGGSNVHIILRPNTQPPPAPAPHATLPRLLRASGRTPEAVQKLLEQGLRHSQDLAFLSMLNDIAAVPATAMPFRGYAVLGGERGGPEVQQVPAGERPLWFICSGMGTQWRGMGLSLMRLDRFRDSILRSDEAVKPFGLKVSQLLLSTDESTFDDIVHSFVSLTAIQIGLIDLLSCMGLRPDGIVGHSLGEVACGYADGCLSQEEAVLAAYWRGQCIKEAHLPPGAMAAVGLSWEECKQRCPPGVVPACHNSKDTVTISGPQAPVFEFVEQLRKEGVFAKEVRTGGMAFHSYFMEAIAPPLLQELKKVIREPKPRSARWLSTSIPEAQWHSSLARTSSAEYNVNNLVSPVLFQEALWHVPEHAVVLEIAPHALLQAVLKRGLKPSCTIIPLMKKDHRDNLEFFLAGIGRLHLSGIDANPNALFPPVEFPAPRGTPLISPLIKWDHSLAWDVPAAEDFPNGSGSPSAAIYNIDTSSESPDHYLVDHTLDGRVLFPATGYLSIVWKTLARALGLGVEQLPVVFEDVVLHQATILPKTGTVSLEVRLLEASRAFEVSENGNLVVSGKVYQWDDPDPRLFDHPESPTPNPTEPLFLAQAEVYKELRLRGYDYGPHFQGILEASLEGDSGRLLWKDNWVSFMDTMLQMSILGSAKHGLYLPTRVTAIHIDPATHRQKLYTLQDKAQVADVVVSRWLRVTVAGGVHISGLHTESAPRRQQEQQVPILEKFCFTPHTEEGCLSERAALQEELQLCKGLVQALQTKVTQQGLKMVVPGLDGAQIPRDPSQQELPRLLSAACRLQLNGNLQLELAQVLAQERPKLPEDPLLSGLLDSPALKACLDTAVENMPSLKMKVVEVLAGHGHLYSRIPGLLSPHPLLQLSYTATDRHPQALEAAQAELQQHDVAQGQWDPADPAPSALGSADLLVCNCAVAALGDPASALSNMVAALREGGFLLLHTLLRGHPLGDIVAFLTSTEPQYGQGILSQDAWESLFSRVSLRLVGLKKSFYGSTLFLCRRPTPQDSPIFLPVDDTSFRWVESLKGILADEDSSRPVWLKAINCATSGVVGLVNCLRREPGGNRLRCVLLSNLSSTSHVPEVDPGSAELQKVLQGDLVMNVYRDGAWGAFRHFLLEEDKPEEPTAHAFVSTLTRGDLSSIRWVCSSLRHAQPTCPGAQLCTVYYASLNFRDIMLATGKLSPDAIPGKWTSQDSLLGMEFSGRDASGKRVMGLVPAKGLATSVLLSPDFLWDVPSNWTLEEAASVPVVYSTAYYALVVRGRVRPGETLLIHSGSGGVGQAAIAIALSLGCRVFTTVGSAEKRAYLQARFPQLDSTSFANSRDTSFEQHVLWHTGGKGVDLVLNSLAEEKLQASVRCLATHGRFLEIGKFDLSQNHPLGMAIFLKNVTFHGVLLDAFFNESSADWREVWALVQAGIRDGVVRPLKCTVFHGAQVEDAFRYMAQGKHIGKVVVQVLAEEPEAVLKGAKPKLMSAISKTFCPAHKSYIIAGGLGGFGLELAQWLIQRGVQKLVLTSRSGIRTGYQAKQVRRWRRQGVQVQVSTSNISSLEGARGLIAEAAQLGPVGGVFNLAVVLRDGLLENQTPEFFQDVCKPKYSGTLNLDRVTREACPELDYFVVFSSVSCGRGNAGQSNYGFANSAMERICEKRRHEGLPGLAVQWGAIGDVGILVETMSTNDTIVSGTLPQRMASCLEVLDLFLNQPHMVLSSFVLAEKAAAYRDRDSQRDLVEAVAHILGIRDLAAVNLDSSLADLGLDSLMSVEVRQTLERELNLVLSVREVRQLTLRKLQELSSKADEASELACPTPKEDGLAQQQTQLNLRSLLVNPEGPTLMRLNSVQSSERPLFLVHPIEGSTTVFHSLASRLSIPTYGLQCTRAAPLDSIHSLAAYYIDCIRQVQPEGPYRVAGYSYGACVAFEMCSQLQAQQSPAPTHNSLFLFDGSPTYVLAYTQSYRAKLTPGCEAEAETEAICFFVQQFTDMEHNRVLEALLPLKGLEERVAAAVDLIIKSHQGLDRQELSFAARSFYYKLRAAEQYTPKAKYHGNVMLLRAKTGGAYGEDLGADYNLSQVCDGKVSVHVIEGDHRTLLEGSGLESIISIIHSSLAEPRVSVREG
T1 sequence (P49327 whole entry): as the sequence (P49327 whole entry, the tested form may be a part) above

In general, inhibition refers to the drop in the measured response relative to a control, in per cent. Consider `O=C(C1CC1)N1CC(CN2C(=O)C3(CC3)N=C2c2ccc(-c3cccc(NS(=O)(=O)C4CC4)c3)cc2F)C1` [compound 619, N-[4′-(6-{[1-(Cyclopropylcarbonyl)azetidin-3-yl]methyl}-7-oxo-4,6-diazaspiro[2.4]hept-4-en-5-yl)-3′-fluorobiphenyl-3-yl]cyclopropanesulfonamide], for which the IC50 in assay [1] was roughly 224 nM; in assay [2], greater than 10000 nM; in assay [3], 186 nM; in assay [4], 380 nM; in assay [5], 631 nM; in assay [6], 3240 nM. The inhibition at 10 µM in assay [3] amounted to 101%.
For the compound `N#Cc1ccc2ccc(-c3ccc(C4=NC5(CC5)C(=O)N4CC4CN(C(=O)C5(O)CC5)C4)c(F)c3)cc2c1` [compound 621, 7-{3-Fluoro-4-[6-({1-[(1-hydroxycyclopropyl)carbonyl]azetidin-3-yl}methyl)-7-oxo-4,6-diazaspiro[2.4]hept-4-en-5-yl]phenyl}naphthalene-2-carbonitrile], the IC50 is 708 nM in assay [1]; 6170 nM in assay [2]; 617 nM in assay [3]; 513 nM in assay [4]; 437 nM in assay [5]; 2140 nM in assay [6]. In assay [3], the inhibition at 10 µM was 92%.
`Cc1cc(-c2ccc(-c3ccnn3C)cc2)ccc1C1=NC2(CC2)C(=O)N1C[C@@H]1CCN(C(=O)C2(C)CC2)C1` [compound 623, 6-({(3R)-1-[(1-Methylcyclopropyl)carbonyl]pyrrolidin-3-yl}methyl)-5-[3-methyl-4′-(1-methyl-1H-pyrazol-5-yl)biphenyl-4-yl]-4,6-diazaspiro[2.4]hept-4-en-7-one]: the IC50 in assay [1] was roughly 32.4 nM; in assay [2] it was 5130 nM; in assay [3], 145 nM; in assay [4] it was 234 nM; in assay [5] it was 123 nM; in assay [6], 562 nM. Also, the inhibition at 10 µM in assay [3] came to 101%.
Take `Cc1cc(-c2ccc3c(c2)ncn3C)ccc1C1=NC2(CC2)C(=O)N1CC1CN(C(=O)C2(C)CC2)C1` [compound 627, 6-({1-[(1-Methylcyclopropyl)carbonyl]azetidin-3-yl}methyl)-5-[2-methyl-4-(1-methyl-1H-benzimidazol-5-yl)phenyl]-4,6-diazaspiro[2.4]hept-4-en-7-one]: the IC50 is 12 nM in assay [1]; greater than 10000 nM in assay [2]; 107 nM in assay [3]; 126 nM in assay [4]; 47.9 nM in assay [5]; roughly 129 nM in assay [6]. The inhibition at 10 µM in assay [3] came out at 105%.
Regarding `COc1cccc2cc(-c3ccc(C4=NC5(CC5)C(=O)N4CC4CN(C(=O)C5CC5)C4)c(F)c3)ccc12` [compound 635, 6-{[1-(Cyclopropylcarbonyl)azetidin-3-yl]methyl}-5-[2-fluoro-4-(5-methoxynaphthalen-2-yl)phenyl]-4,6-diazaspiro[2.4]hept-4-en-7-one], the IC50 in assay [1] was 129 nM; in assay [2], greater than 10000 nM; in assay [3] it was 219 nM; in assay [4] it was 1350 nM; in assay [5], 355 nM; in assay [6] it was 1020 nM. Besides, the inhibition at 10 µM in assay [3] was determined as 97%.
On to `Cn1ncc2cc(-c3ccc(C4=NC5(CC5)C(=O)N4CC4CN(C(=O)C5(F)CC5)C4)c(F)c3)ccc21` [compound 637, 6-({1-[(1-Fluorocyclopropyl)carbonyl]azetidin-3-yl}methyl)-5-[2-fluoro-4-(1-methyl-1H-indazol-5-yl)phenyl]-4,6-diazaspiro[2.4]hept-4-en-7-one], for which the IC50 in assay [1] was 85.1 nM; in assay [2], greater than 10000 nM; in assay [3], 120 nM; in assay [4] it was 871 nM; in assay [5] it was roughly 234 nM; in assay [6], 1820 nM. In addition, in assay [3], the inhibition at 10 µM amounted to 99%.
Consider `O=C(C1CC1)N1CC(CN2C(=O)C3(CC3)N=C2c2ccc(-c3nc4cc(F)ccc4s3)cc2F)C1` [compound 638, 6-{[1-(Cyclopropylcarbonyl)azetidin-3-yl]methyl}-5-[2-fluoro-4-(5-fluoro-1,3-benzothiazol-2-yl)phenyl]-4,6-diazaspiro[2.4]hept-4-en-7-one], for which the IC50 in assay [1] is roughly 195 nM; in assay [2] it was greater than 10000 nM; in assay [3], 191 nM; in assay [4], 1000 nM; in assay [5], 479 nM; in assay [6], 1700 nM. In addition, in assay [3], the inhibition at 10 µM came out at 100%.
Turning to `O=C(C1CC1)N1CC(CN2C(=O)C3(CC3)N=C2c2ccc(-c3nc4cc(F)c(F)cc4s3)cc2F)C1` [compound 639, 6-{[1-(Cyclopropylcarbonyl)azetidin-3-yl]methyl}-5-[4-(5,6-difluoro-1,3-benzothiazol-2-yl)-2-fluorophenyl]-4,6-diazaspiro[2.4]hept-4-en-7-one], the IC50 in assay [1] is roughly 363 nM; in assay [2], greater than 10000 nM; in assay [3] it was 282 nM; in assay [4] it was 1450 nM; in assay [5] it was 794 nM; in assay [6], 2340 nM. The inhibition at 10 µM in assay [3] was found to be 97%.
As to `O=C(C1CC1)N1CC(CN2C(=O)C3(CC3)N=C2c2ccc(-c3cccc(SC4CC4)c3)cc2F)C1` [compound 645, 6-{[1-(Cyclopropylcarbonyl)azetidin-3-yl]methyl}-5-[3′-(cyclopropylsulfanyl)-3-fluorobiphenyl-4-yl]-4,6-diazaspiro[2.4]hept-4-en-7-one], the IC50 in assay [1] was roughly 2040 nM; in assay [2], greater than 10000 nM; in assay [3], 275 nM; in assay [4], 676 nM; in assay [5], 1740 nM; in assay [6], 3470 nM. Also, the inhibition at 10 µM in assay [3] was determined as 100%.
Regarding `O=C(C1CC1)N1CC[C@@H](CN2C(=O)C3(CC3)N=C2c2ccc(-c3cccc(S(=O)(=O)C4CC4)c3)cc2F)C1` [compound 647, 6-{[(3R)-1-(Cyclopropylcarbonyl)pyrrolidin-3-yl]methyl}-5-[3′-(cyclopropylsulfonyl)-3-fluorobiphenyl-4-yl]-4,6-diazaspiro[2.4]hept-4-en-7-one], the IC50 is 1950 nM in assay [1]; greater than 10000 nM in assay [2]; 631 nM in assay [3]; 1380 nM in assay [4]; 1740 nM in assay [5]; 5130 nM in assay [6]. Moreover, the inhibition at 10 µM in assay [3] turned out to be 91%.
For `O=C(C1CC1)N1CC(CN2C(=O)C3(CC3)N=C2c2ccc(-c3nc4ccc(Cl)cc4o3)cc2F)C1` [compound 649, 5-[4-(6-Chloro-1,3-benzoxazol-2-yl)-2-fluorophenyl]-6-{[1-(cyclopropylcarbonyl)azetidin-3-yl]methyl}-4,6-diazaspiro[2.4]hept-4-en-7-one], the IC50 in assay [1] is 200 nM; in assay [2], 7410 nM; in assay [3], 158 nM; in assay [4], 372 nM; in assay [5], 437 nM; in assay [6], 1740 nM. In addition, in assay [3], the inhibition at 10 µM stood at 97%.
Consider `O=C(C1CC1)N1CC[C@@H](CN2C(=O)C3(CCOCC3)N=C2c2ccc(-c3ccc4cccnc4c3)cc2)C1` [compound 661, 3-{[(3R)-1-(Cyclopropylcarbonyl)pyrrolidin-3-yl]methyl}-2-(4-quinolin-7-ylphenyl)-8-oxa-1,3-diazaspiro[4.5]dec-1-en-4-one], for which the IC50 in assay [1] was 42.7 nM; in assay [2], greater than 10000 nM; in assay [3] it was 58.9 nM; in assay [4], 132 nM; in assay [5], roughly 79.4 nM; in assay [6] it was 191 nM. The inhibition at 10 µM in assay [3] came out at 95%.
